In PubChem BioAssay (NCI):
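Grown in 96-well plates, cells were treated for 48 hours with each compound at five concentrations. Insufficient inhibition: endpoint recorded as highest concentration tested. At the TGI there is no net growth.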

Key:
Test in all cases: NCI tumour cell line growth inhibition, 48 h
786-0 renal = system: 786-0 renal
HOP-62 NSCLC = system: HOP-62 NSCLC
SK-OV-3 ovarian = system: SK-OV-3 ovarian
NCI-H23 lung = system: NCI-H23 lung
A549 NSCLC = system: A549 NSCLC
SN12C renal = system: SN12C renal
HOP-92 NSCLC = system: HOP-92 NSCLC
HCT-116 colon = system: HCT-116 colon
CCRF-CEM leukemia = system: CCRF-CEM leukemia
U251 CNS = system: U251 CNS
BT-549 breast = system: BT-549 breast
MCF7 breast = system: MCF7 breast
UACC-257 melanoma = system: UACC-257 melanoma
SF-268 CNS = system: SF-268 CNS
SK-MEL-28 melanoma = system: SK-MEL-28 melanoma
SK-MEL-5 melanoma = system: SK-MEL-5 melanoma
NCI/ADR-RES ovarian = system: NCI/ADR-RES ovarian
NCI-H460 lung = system: NCI-H460 lung
KM12 colon = system: KM12 colon
MALME-3M melanoma = system: MALME-3M melanoma
M14 melanoma = system: M14 melanoma
CAKI-1 renal = system: CAKI-1 renal
SW-620 colon = system: SW-620 colon
K-562 leukemia = system: K-562 leukemia
SR leukemia = system: SR leukemia
HCT-15 colon = system: HCT-15 colon
OVCAR-4 ovarian = system: OVCAR-4 ovarian
MDA-MB-231 breast = system: MDA-MB-231 breast
DU-145 prostate = system: DU-145 prostate
EKVX NSCLC = system: EKVX NSCLC
HCC-2998 colon = system: HCC-2998 colon
IGROV1 ovarian = system: IGROV1 ovarian
RXF 393 renal = system: RXF 393 renal
UACC-62 melanoma = system: UACC-62 melanoma
T-47D breast = system: T-47D breast
UO-31 renal = system: UO-31 renal
MDA-N = system: MDA-N
ACHN renal = system: ACHN renal
HS 578T breast = system: HS 578T breast
MOLT-4 leukemia = system: MOLT-4 leukemia
PC-3 prostate = system: PC-3 prostate
SNB-19 CNS = system: SNB-19 CNS
NCI-H226 lung = system: NCI-H226 lung
LOX IMVI melanoma = system: LOX IMVI melanoma
OVCAR-5 ovarian = system: OVCAR-5 ovarian
HT29 colon = system: HT29 colon
A498 renal = system: A498 renal
OVCAR-8 ovarian = system: OVCAR-8 ovarian
HL-60(TB) leukemia = system: HL-60(TB) leukemia
SNB-75 CNS = system: SNB-75 CNS
OVCAR-3 ovarian = system: OVCAR-3 ovarian
COLO 205 colon = system: COLO 205 colon
TK-10 renal = system: TK-10 renal
SF-295 CNS = system: SF-295 CNS
MDA-MB-435 = system: MDA-MB-435
NCI-H522 lung = system: NCI-H522 lung
SF-539 CNS = system: SF-539 CNS
RPMI-8226 leukemia = system: RPMI-8226 leukemia
SK-MEL-2 melanoma = system: SK-MEL-2 melanoma

`CN(CCNC(=O)c1[nH]nc2c1Cc1ccccc1-2)CCNC(=O)c1[nH]nc2c1Cc1ccccc1-2` showed a TGI (786-0 renal) of 30.6 µM, a TGI (HOP-62 NSCLC) of 29.4 µM and a TGI (SK-OV-3 ovarian) of 31.1 µM. The TGI (NCI-H23 lung) was 33.6 µM, the TGI (A549 NSCLC) was 39.8 µM and the TGI (SN12C renal) was 31.8 µM. The TGI (HOP-92 NSCLC) was 34.6 µM, the TGI (HCT-116 colon) was 32.8 µM and the TGI (CCRF-CEM leukemia) was 42.9 µM. It also gave a TGI (U251 CNS) of 41.3 µM, a TGI (BT-549 breast) of 31 µM and a TGI (MCF7 breast) of 44.9 µM. The TGI (UACC-257 melanoma) was 34.3 µM, the TGI (SF-268 CNS) was 39.6 µM and the TGI (SK-MEL-28 melanoma) was 35.2 µM. For the same compound, the TGI (SK-MEL-5 melanoma) was 30.8 µM, the TGI (NCI/ADR-RES ovarian) was > 100 µM and the TGI (NCI-H460 lung) was 33.5 µM. The TGI (KM12 colon) was 33.6 µM, the TGI (MALME-3M melanoma) was 34.5 µM and the TGI (M14 melanoma) was 34.4 µM. For the same compound, the TGI (CAKI-1 renal) was 31.3 µM, the TGI (SW-620 colon) was 49.4 µM and the TGI (K-562 leukemia) was 38.1 µM. It also gave a TGI (SR leukemia) of 42.9 µM, a TGI (HCT-15 colon) of 33.2 µM and a TGI (OVCAR-4 ovarian) of 32.4 µM. The TGI (MDA-MB-231 breast) was 39.3 µM, the TGI (DU-145 prostate) was 32 µM and the TGI (EKVX NSCLC) was 38.4 µM. For the same compound, the TGI (HCC-2998 colon) was 29.4 µM, the TGI (IGROV1 ovarian) was 31.8 µM and the TGI (RXF 393 renal) was 32.3 µM. The TGI (UACC-62 melanoma) was 37.5 µM, the TGI (T-47D breast) was 44.3 µM and the TGI (UO-31 renal) was 34.7 µM. For the same compound, the TGI (MDA-N) was 31.2 µM, the TGI (ACHN renal) was 32.5 µM and the TGI (HS 578T breast) was 61.9 µM. It also gave a TGI (MOLT-4 leukemia) of 45.2 µM, a TGI (PC-3 prostate) of 35.7 µM and a TGI (SNB-19 CNS) of 31.4 µM. For the same compound, the TGI (NCI-H226 lung) was 35.8 µM, the TGI (LOX IMVI melanoma) was 38.5 µM and the TGI (OVCAR-5 ovarian) was 33.5 µM. The TGI (HT29 colon) was 32.7 µM, the TGI (A498 renal) was 36.8 µM and the TGI (OVCAR-8 ovarian) was 41.7 µM. For the same compound, the TGI (HL-60(TB) leukemia) was 40.7 µM, the TGI (SNB-75 CNS) was 26.1 µM and the TGI (OVCAR-3 ovarian) was 28.9 µM. For the same compound, the TGI (COLO 205 colon) was 31.9 µM, the TGI (TK-10 renal) was 33.7 µM and the TGI (SF-295 CNS) was 31 µM. It also gave a TGI (MDA-MB-435) of 35.3 µM and a TGI (NCI-H522 lung) of 33.4 µM.
`C[C@]12CCC3c4ccc(O)cc4CC[C@H]3C1CC(=O)N(CCN1CCCC1)C2=O` (stereo not given in full) was tested, and the TGI (786-0 renal) was > 10 µM, the TGI (HOP-62 NSCLC) was > 10 µM and the TGI (SK-OV-3 ovarian) was > 10 µM. The TGI (NCI-H23 lung) was > 10 µM, the TGI (A549 NSCLC) was > 10 µM and the TGI (SN12C renal) was > 10 µM. The TGI (HCT-116 colon) was > 10 µM, the TGI (CCRF-CEM leukemia) was > 10 µM and the TGI (U251 CNS) was > 10 µM. For the same compound, the TGI (BT-549 breast) was > 10 µM, the TGI (SF-539 CNS) was > 10 µM and the TGI (MCF7 breast) was > 10 µM. For the same compound, the TGI (UACC-257 melanoma) was > 10 µM, the TGI (SF-268 CNS) was > 10 µM and the TGI (SK-MEL-28 melanoma) was > 10 µM. The TGI (SK-MEL-5 melanoma) was > 10 µM, the TGI (NCI/ADR-RES ovarian) was > 10 µM and the TGI (NCI-H460 lung) was > 10 µM. For the same compound, the TGI (KM12 colon) was > 10 µM, the TGI (MALME-3M melanoma) was > 10 µM and the TGI (M14 melanoma) was > 10 µM. For the same compound, the TGI (CAKI-1 renal) was > 10 µM, the TGI (SW-620 colon) was > 10 µM and the TGI (K-562 leukemia) was > 10 µM. For the same compound, the TGI (RPMI-8226 leukemia) was > 10 µM, the TGI (SR leukemia) was > 10 µM and the TGI (HCT-15 colon) was > 10 µM. For the same compound, the TGI (OVCAR-4 ovarian) was > 10 µM, the TGI (MDA-MB-231 breast) was > 10 µM and the TGI (DU-145 prostate) was > 10 µM. For the same compound, the TGI (EKVX NSCLC) was > 10 µM, the TGI (HCC-2998 colon) was > 10 µM and the TGI (IGROV1 ovarian) was > 10 µM. For the same compound, the TGI (RXF 393 renal) was > 10 µM, the TGI (SK-MEL-2 melanoma) was > 10 µM and the TGI (UACC-62 melanoma) was > 10 µM. The TGI (T-47D breast) was > 10 µM, the TGI (UO-31 renal) was > 10 µM and the TGI (MDA-N) was > 10 µM. The TGI (ACHN renal) was > 10 µM, the TGI (HS 578T breast) was > 10 µM and the TGI (MOLT-4 leukemia) was > 10 µM. For the same compound, the TGI (PC-3 prostate) was > 10 µM, the TGI (SNB-19 CNS) was > 10 µM and the TGI (NCI-H226 lung) was > 10 µM. The TGI (LOX IMVI melanoma) was > 10 µM, the TGI (OVCAR-5 ovarian) was > 10 µM and the TGI (HT29 colon) was > 10 µM. For the same compound, the TGI (A498 renal) was > 10 µM, the TGI (OVCAR-8 ovarian) was > 10 µM and the TGI (HL-60(TB) leukemia) was > 10 µM. For the same compound, the TGI (SNB-75 CNS) was > 10 µM, the TGI (OVCAR-3 ovarian) was > 10 µM and the TGI (COLO 205 colon) was > 10 µM. The TGI (TK-10 renal) was > 10 µM, the TGI (SF-295 CNS) was > 10 µM and the TGI (MDA-MB-435) was > 10 µM.
In the case of `OC(Cc1cccnc1)(c1ccccc1)c1ccccc1`, the TGI (786-0 renal) is reported as > 100 µM, the TGI (HOP-62 NSCLC) is reported as > 100 µM and the TGI (SK-OV-3 ovarian) is reported as > 100 µM. For the same compound, the TGI (NCI-H23 lung) was > 100 µM, the TGI (A549 NSCLC) was > 100 µM and the TGI (SN12C renal) was > 100 µM. The TGI (HOP-92 NSCLC) was > 100 µM, the TGI (HCT-116 colon) was > 100 µM and the TGI (CCRF-CEM leukemia) was > 100 µM. The TGI (U251 CNS) was > 100 µM, the TGI (BT-549 breast) was > 100 µM and the TGI (MCF7 breast) was > 100 µM. The TGI (UACC-257 melanoma) was > 100 µM, the TGI (SF-268 CNS) was > 100 µM and the TGI (SK-MEL-28 melanoma) was > 100 µM. The TGI (SK-MEL-5 melanoma) was > 100 µM, the TGI (NCI/ADR-RES ovarian) was > 100 µM and the TGI (NCI-H460 lung) was > 100 µM. The TGI (KM12 colon) was > 100 µM, the TGI (MALME-3M melanoma) was > 100 µM and the TGI (M14 melanoma) was > 100 µM. For the same compound, the TGI (CAKI-1 renal) was > 100 µM, the TGI (SW-620 colon) was > 100 µM and the TGI (K-562 leukemia) was > 100 µM. For the same compound, the TGI (RPMI-8226 leukemia) was > 100 µM, the TGI (SR leukemia) was > 100 µM and the TGI (HCT-15 colon) was > 100 µM. The TGI (OVCAR-4 ovarian) was > 100 µM, the TGI (MDA-MB-231 breast) was > 100 µM and the TGI (DU-145 prostate) was > 100 µM. The TGI (EKVX NSCLC) was > 100 µM, the TGI (HCC-2998 colon) was > 100 µM and the TGI (IGROV1 ovarian) was > 100 µM. The TGI (RXF 393 renal) was > 100 µM, the TGI (SK-MEL-2 melanoma) was > 100 µM and the TGI (UACC-62 melanoma) was > 100 µM. For the same compound, the TGI (T-47D breast) was > 100 µM, the TGI (UO-31 renal) was > 100 µM and the TGI (MDA-N) was > 100 µM. For the same compound, the TGI (ACHN renal) was > 100 µM, the TGI (HS 578T breast) was > 100 µM and the TGI (PC-3 prostate) was > 100 µM. The TGI (SNB-19 CNS) was > 100 µM, the TGI (NCI-H226 lung) was > 100 µM and the TGI (LOX IMVI melanoma) was > 100 µM. For the same compound, the TGI (OVCAR-5 ovarian) was > 100 µM, the TGI (HT29 colon) was > 100 µM and the TGI (A498 renal) was > 100 µM. For the same compound, the TGI (OVCAR-8 ovarian) was > 100 µM, the TGI (HL-60(TB) leukemia) was > 100 µM and the TGI (SNB-75 CNS) was > 100 µM. For the same compound, the TGI (OVCAR-3 ovarian) was > 100 µM, the TGI (COLO 205 colon) was > 100 µM and the TGI (TK-10 renal) was > 100 µM. For the same compound, the TGI (SF-295 CNS) was > 100 µM, the TGI (MDA-MB-435) was > 100 µM and the TGI (NCI-H522 lung) was > 100 µM.
